Data taken from patent publication EP3895695A1, “SUPERCRITICAL CARBON DIOXIDE-BASED METHODOLOGY TO FORMULATE BIOACTIVE PREPARATIONS” (Universidad Autónoma de Madrid, priority 2020, dated 2021).

Columns and labels:
[1] = HPLC quantification of quercetin, rosmarinic acid and carnosic acid in BIOSAS lipid products; assay type: physicochemical; conditions: for amount dispersed in oil: rosemary BIOSAS dispersion
Description: Carnosic acid and rosmarinic acid were identified and quantified in the case of BIOSAS rosemary samples following the procedures described by […]. Garcia-Risco, T. Fornari, G. Reglero, Isolation of carsonic acid from rosemary extracts using semi-preparative supercritical fluid chromatography, J. Chromatogr. A. 1286 (2013) 208-215. doi:10.1016/j.chroma.2013.02.044 using a HPLC Prominence-i LC-2030C 3D Plus (Shimadzu) equipped with a RP-C18 (250 × 4.6 mm; 3 μm) chromatography column. The mobile phase consisted of 0.1 % of phosphoric acid in water (solvent A) and acetonitrile (solvent B) applying the following gradient: 0-8 min, 77 % A, 8-25 min, 25 % A, 25-40 min 25 % A and the 40-45 min 77 % A. Initial conditions were gained in 5 min. The flow rate was constant at 0.7 ml/min. Injection volume was 20 μl and the detection was accomplished using a diode array detection system, storing the signal at a wavelength of 230, 280 and 350 nm. In the case of quercetin BIOSAS dispersion, HPLC analysis was carried out as previously described by Wei et al.. A Prominence-i LC-2030C 3D Plus (Shimadzu) equipped with a quaternary solvent delivery system, an autosampler and DAD detector and RP-C18 (250 × 4.6 mm; 3 μm) was used. The column temperature was set at 25 °C. The mobile phase consists of acetonitrile (A) and 0.026% aqueous H3PO4 (v/v), applying the following gradient elution: at 0-20 min, 20%-25% A, 20-30 min, 25%-34% A, 30-50 min, 34%-50% A, 50-60 min, 50%-60% A and 60-80 min, 60% A. After 5 min, the initial conditions were achieved. The flow rate was 0.7 ml/min and was kept constant during analysis. Injection volume was 20 μl and detection was accomplished at 254, 280 and 370 nm.

mice = conditions: intravenous administration; cited from earlier work

| SMILES | amount dispersed in oil ([1]; argan oil) [mg/g] | amount dispersed in oil ([1]; flaxseed oil) [mg/g] | concentration of quercetin in the flaxseed oil ([1]; HPLC analysis, BIOSAS 20 MPa, 313.15 K) [% mass] | amount dispersed by BIOSAS process ([1]; in high molecular weight triacylglycerols (flaxseed oil), 313.15 K) [mg/g] | LD50 (mice) [mg/kg] |
| --- | --- | --- | --- | --- | --- |
| CC(C)c1cc2c(c(O)c1O)[C@@]1(C(=O)O)CCCC(C)(C)[C@@H]1CC2 [carnosic acid, Carnosic acid] | 4.90 | 6.39 | – | – | – |
| O=c1c(O)c(-c2ccc(O)c(O)c2)oc2cc(O)cc(O)c12 [quercetin, 2-(3,4-Dihydroxyphenyl)-3,5,7-trihydroxy-4H-1-benzopyran-4-one,3,3',4',5,6-Pentahydroxyflavone - Quercetin] | – | – | 1.55 ± 0.05 | > 15 | – |
| O=C(/C=C/c1ccc(O)c(O)c1)O[C@H](Cc1ccc(O)c(O)c1)C(=O)O [rosmarinic acid] | ~0.40 | 0.51 | – | – | 561 |
